According to US4958010A, “Epipodophyllotoxin glucoside lactam derivatives” (Bristol-Myers Company, priority 1989, dated 1990):
Values after ≈ are worked out from the molar mass of the structure shown. Values joined by “and” are separate entries in the source; they are usually repeats but may differ in a detail not shown here. Equal entries are not always repeated. Structures can show the parent of a compound that is named as a salt.

Key:
SW900 human lung = test: in vitro cytotoxicity assay, SW900 human lung; type: cell-based; conditions: four-fold serial dilution, replicate determinations on separate lines; for IC50: Homo sapiens, SW900, concentration required to inhibit cell growth by 50%; for IC50 SW900: concentration required to inhibit cell growth by 50%
Experimental: (§1) Representative compounds of the present invention were also evaluated in in vitro cytotoxicity assay against various murine and human tumor cell lines. The in vitro cytotoxicity assay involved growing various mammalian tumor cells, including human tumor cells, on microtitre plates employing established tissue culture methods. The concentration of each compound required to inhibit cell growth by 50% (IC50) was then determined by four-fold serial dilution technique. Tumor cells of the following types were employed for each compound tested: B16-F10 murine melanoma; Moser human colon; SW900 human lung; and two human colon tumor cell lines namely HCT-116, and HCT/VP35, the latter being resistant to etoposide (VP). […] The in vitro data may also be evaluated in terms of potency ratio which is defined as the ratio of IC50 against an etoposide-resistant cell-line to IC50 against an etoposide-sensitive cell-line.

HCT-116 = test: in vitro cytotoxicity assay, HCT-116 human colon tumor; type: cell-based; conditions: four-fold serial dilution, replicate determinations on separate lines; for IC50: Homo sapiens, HCT-116, concentration required to inhibit cell growth by 50%; for IC50 HCT-116: concentration required to inhibit cell growth by 50%
Experimental: as §1

HCT/VP35 = test: in vitro cytotoxicity assay, HCT/VP35 human colon tumor resistant to etoposide; type: cell-based; conditions: for IC50: Homo sapiens, HCT/VP35, etoposide-resistant line; for IC50 / IC50 HCT/VP35: concentration required to inhibit cell growth by 50%, four-fold serial dilution, replicate determinations on separate lines; for IC50 HCT/VP35: etoposide-resistant line; for potency ratio IC50 HCT/VP35 : IC50 HCT-116: ratio of IC50 against etoposide-resistant cell line to IC50 against etoposide-sensitive cell line, same experiment
Experimental: as §1

Moser human colon = test: in vitro cytotoxicity assay, Moser human colon; type: cell-based; conditions: concentration required to inhibit cell growth by 50%, four-fold serial dilution, replicate determinations on separate lines; for IC50: Homo sapiens
Experimental: as §1

B16-F10 murine melanoma = test: in vitro cytotoxicity assay, B16-F10 murine melanoma; type: cell-based; conditions: four-fold serial dilution, replicate determinations on separate lines; for IC50: Mus musculus, B16-F10, concentration required to inhibit cell growth by 50%; for IC50 B16-F10: concentration required to inhibit cell growth by 50%
Experimental: as §1

[1] = Cancer Chemoth. Rep., 1966, 50:565-571; cited from earlier work
P388 leukemia = test: antitumor activity against intravenously implanted P388 leukemia in BDF1 female mice; type: in vivo, murine (BDF1 female mice); conditions: 10^6 P388 cells i.v., drug i.v. on days 5 and 8, 200 mg/kg/dose, 64 days
Experimental: Compound of Example 15 was evaluated against intravenously implanted P388 leukemia (10^6 cells) in BDF1 female mice. The test compound was administered intravenously at various dose levels to groups of six mice on days 5 and 8; the positive control, etoposide, was given intraperitoneally. The experiment lasted 64 days.

| SMILES | IC50 (SW900 human lung) | IC50 SW900 (SW900 human lung) | IC50 (HCT-116) | IC50 HCT-116 (HCT-116) | IC50 (HCT/VP35) | IC50 HCT/VP35 (HCT/VP35) | potency ratio IC50 HCT/VP35 : IC50 HCT-116 (HCT/VP35) | IC50 (Moser human colon) | IC50 Moser (Moser human colon) | IC50 (B16-F10 murine melanoma) | IC50 B16-F10 (B16-F10 murine melanoma) | antitumor activity in clinical trials [1] | max. % T/C (P388 leukemia) |
| --- | --- | --- | --- | --- | --- | --- | --- | --- | --- | --- | --- | --- | --- |
| CCCCCCCC(=O)Oc1c(OC)cc([C@@H]2c3cc4c(cc3[C@@H](O[C@@H]3O[C@@H]5CO[C@@H](C)O[C@H]5[C@H](O)[C@H]3O)[C@H]3CNC(=O)[C@H]23)OCO4)cc1OC [Example 11, 6H-Pyrrolo[3',4':6,7]naphtho[2,3-d]-1,3-dioxole-6-one, 5,5a,7,8,8a,9-hexahydro-9[(4,6-O-ethylidene-β-D-glucopyranosyl)oxy]-5-[(3,5-dimethoxy-4-octanoyloxy)phenyl], [5R-[5α,5aβ,8aα,9β(R*)]-] | 12.3 µg/mL (≈ 17.3 µM) | 12.48 µg/mL (≈ 17.5 µM) | 17.3 µg/mL (≈ 24.2 µM) | 18.33 µg/mL (≈ 25.7 µM) | 18.7 µg/mL (≈ 26.2 µM) | 25.22 µg/mL (≈ 35.3 µM) | 1 | 20.2 µg/mL (≈ 28.3 µM) | 25.92 µg/mL (≈ 36.3 µM) | 21 µg/mL (≈ 29.4 µM) | 20.69 µg/mL (≈ 29 µM) | – | – |
| COc1cc([C@@H]2c3cc4c(cc3[C@@H](O[C@@H]3O[C@@H]5CO[C@@H](C)O[C@H]5[C@H](O)[C@H]3O)[C@H]3CNC(=O)[C@H]23)OCO4)cc(OC)c1O [Example 5, 6H-Pyrrolo[3',4':6,7]naphtho[2,3-d]-1,3-dioxole-6-one,5,5a,7,8,8a,9-hexahydro-9-[(4,6-O-ethylidene-β-D-glucopyranosyl)oxy]-5-[(4-hydroxy-3,5-dimethoxy)phenyl]-, [5R-[5α,5aα,8aα, 9β(R*)]-] | 107 µg/mL (≈ 183 µM) | 123.53 µg/mL (≈ 210 µM) | 56.1 µg/mL (≈ 95.5 µM) | 66.52 µg/mL (≈ 113 µM) | 103 µg/mL (≈ 175 µM) | 111.78 µg/mL (≈ 190 µM) | – | 81.1 µg/mL (≈ 138 µM) | 102.51 µg/mL (≈ 174 µM) | – | 27.92 µg/mL and 72.27 µg/mL | – | – |
| CCCCCCCC=NN1C[C@H]2[C@H](C1=O)[C@H](c1cc(OC)c(O)c(OC)c1)c1cc3c(cc1[C@H]2O[C@@H]1O[C@@H]2CO[C@@H](C)O[C@H]2[C@H](O)[C@H]1O)OCO3 [Example 9, 6H-Pyrrolo[3',4':6,7]naphtho[2,3-d]-1,3-dioxole-6-one, 5,5a,7,8,8a,9-hexahydro-9-[(4,6-O-ethylidene-β-D-glucopyranosyl)oxy]-5-[(4-hydroxy-3,5-dimethoxy)phenyl]-7-[(octylidene)amino]-, [5R-[5α,5aβ,8aα,9β(R*)]-] | – | 21.21 µg/mL and 52.18 µg/mL and 95.53 µg/mL | – | 3.39 µg/mL and 4.68 µg/mL and 16.63 µg/mL | – | 6.85 µg/mL and 23.65 µg/mL | – | 11.5 µg/mL (≈ 16.1 µM) | 15.09 µg/mL and 15.98 µg/mL | 6.64 µg/mL (≈ 9.32 µM) | 6.70 µg/mL and 10.21 µg/mL | – | – |
| CCCCCCCC(=O)Oc1c(OC)cc([C@@H]2c3cc4c(cc3[C@@H](O[C@@H]3O[C@@H]5CO[C@@H](C)O[C@H]5[C@H](O)[C@H]3O)[C@H]3CN(N=Cc5ccccc5)C(=O)[C@H]23)OCO4)cc1OC [Example 10, 6H-Pyrrolo[3',4':6,7]naphtho[2,3-d]-1,3-dioxole-6-one, 5,5a,7,8,8a,9-hexahydro-9-[(4,6-O-ethylidene-β-D-glucopyranosyl)oxy]-5-[(3,5-dimethoxy-4-octanoyloxy)phenyl]-7-[(phenylmethylene)amino]-, [5R-[5α,5aβ,8aα, 9β(R*)]-] | 21.2 µg/mL (≈ 26 µM) | 19.82 µg/mL (≈ 24.3 µM) | 17.3 µg/mL (≈ 21.1 µM) | 16.05 µg/mL (≈ 19.6 µM) | 25.6 µg/mL (≈ 31.3 µM) | 13.50 µg/mL (≈ 16.5 µM) | 1 | 25.6 µg/mL (≈ 31.3 µM) | 16.38 µg/mL (≈ 20.1 µM) | 23.6 µg/mL (≈ 29 µM) | 16.76 µg/mL (≈ 20.5 µM) | – | – |
| CCNNC(=O)C1C(c2cc(OC)c(OC)c(OC)c2)c2cc3c(cc2C(O)C1CO)OCO3 (stereo not shown) [ethyl hydrazide of podophyllotoxin (V), ethyl hydrazide of podophyllotoxin] | – | – | – | – | – | – | – | – | – | – | – | minimal antitumor activity | – |
| COc1cc([C@@H]2c3cc4c(cc3[C@@H](O[C@@H]3O[C@@H]5CO[C@@H](C)O[C@H]5[C@H](O)[C@H]3O)[C@H]3CNC(=O)[C@H]23)OCO4)cc(OC)c1OP(=O)(O)O [Example 15, 6H-Pyrrolo[3',4':6,7]naphtho[2,3-d]-1,3-dioxole-6-one, 5,5a,7,8,8a,9-hexahydro-9-[(4,6-O-ethylidene-β-Dglucopyranosyl)oxy]-5-[(3,5-dimethoxy-4-phosphonoxy)phenyl]-1, disodium salt, [5R-[5α,5aβ,8aα,9β(R*)]-] | – | – | – | – | – | – | – | – | – | – | – | – | 235 % T/C |
